Results reported in publication PMC11206678, “Peptide-Alkoxyamine Drugs: An Innovative Approach to Fight Schistosomiasis: “Digging Their Graves with Their Forks”” (Pathogens, 2024).
“Also recorded” adds a separate entry of the source. Square brackets hold non-standard residues; d marks the D form. Peptide text beside a SMILES is read from it. * marks the point of attachment. Boc = CC(C)(C)OC(=O)*; OBn = c1ccc(CO*)cc1

Columns and labels:
[1] = Homolysis kinetics of alkoxyamines by EPR (growth of nitroxide); format: physicochemical; settings: mixture of diastereoisomers; for Homolysis rate constant kd: 0.1 mM alkoxyamine, O2 as alkyl radical scavenger; for Activation energy Ea: by Equation (2) from kd and T, A = 2.4 10^14 s^−1
Experimental: Preparation of alkoxyamines and reference samples. All reagents including anhydrous solvents used for the chemical synthesis were purchased from commercially available sources such as Merck, TCI, and Fluorochem, and were used without further purification. All air and/or water-sensitive reactions were carried out under an argon atmosphere with dry solvents using standard syringe-cannula/septa techniques. Routine monitoring of reactions was performed using Merck Silica gel 60 F254, aluminum-supported TLC plates; spots were visualized using UV light and ethanolic acidic para-anisaldehyde solution or ethanolic phosphomolybdic solution, followed by heating. Purifications by means of column chromatography were performed with Silica gel 60 (230–400 mesh). ^1H, ^13C, and ^19F NMR spectra were obtained in CDCl3, MeOD (with residual H2O), D2O, DMSO-d6, or C6D6 solutions on by using Bruker AC400 (400 MHz) and Bruker AC300 (300 MHz) spectrometers. High-resolution mass spectra (HRMS) have been performed using a SYNAPT G2 HDMS (Waters) mass spectrometer equipped with a pneumatically assisted atmospheric pressure ionization (API) source. The sample was ionized in positive electrospray mode under the following conditions: electrospray voltage: 2.8 kV; port voltage: 20 V; Nebulizing gas flow rate (nitrogen): 100 L/h or in negative electrospray mode under the following conditions: electrospray voltage: −2.27 kV; port voltage: −20 V; Nebulizing gas flow rate (nitrogen): 100 L/h. The mass spectra (MS) were obtained with a time-of-flight (TOF) analyzer. The exact mass measurements were carried out in triplicate with external calibration. Homolysis constants were measured by EPR on an EMX Bruker spectrometer from 10^−4 M samples in tertbutyl benzene or in a mixture of H2O-nPrOH (1:1; v:v).
Kinetic experiments. Kinetics of A1–A7 (Scheme 2) for series L and D are performed by monitoring the growth of nitroxide by Electron Paramagnetic Resonance (X-band EMX Bruker machine) in tert-butylbenzene and a water/n-PrOH (for a good solubility of the alkoxyamine) as solvents and using O2 as alkyl radical scavenger to suppress the back reaction (kc in Scheme 2) as already reported. Homolysis rate constants kd are given by Equation (1) ([nitroxide]∞ = [alkoxyamine]0 = 0.1 mM, see Table S1) and the subsequent activation energies Ea given by Equation (2). (1) lnnitroxide∞−nitroxidet/nitroxide∞=−kd·t, (2) Ea=−RTlnkd/A.

[2] = tested on: Schistosoma mansoni adult worms; test: Viability of Schistosoma mansoni adult worms in vitro; format: cell-based, Schistosoma mansoni NMRI strain; settings: 37 °C; for Activity/toxicity towards schistosomes (in words): adult worms; for Activity/toxicity towards schistosomes (in words) / Time to Kill 50% of Parasites / Time to Kill 100% of Parasites: 100 μg/mL; for Time to Kill 50% of Parasites / Time to Kill 100% of Parasites: adult worms in RPMI 1640/Tween 80/DMSO, observed up to 72 h, duplicate wells
Experimental: Experiments on the viability of Schistosoma mansoni adult worms. In vitro tests were performed on Schistosoma mansoni NMRI strains. This parasite is lab maintained on Biomphalaria glabrata (BRE strain) as intermediate mollusc host and Golden Hamster (Janvier Labs, Le Genest-Saint-Isle, France) as definitive vertebrate host. Methods, for molluscs’ and hamsters’ infection and for parasite recovery, were previously described. Adult worms were recovered by hepatic perfusion technique between 42 and 47 days post hamster exposition to parasite larvae. Worms were carefully collected and disposed in 12-well Falcon® plate containing 2 mL of RPMI 1640 (supplemented with L-glutamine and Hepes 25 mM). The plates containing a minimum of 15 worms by well were then placed in an incubator chamber at 37 °C and 5% CO2. The worms sex ratio was almost balanced in each well. The drug was first dissolved in DMSO (Sigma-Aldrich) to give a 100 mg/mL mother solution. Then the stock solution was complemented with Tween 80 and RPMI to obtain the following final ratio dilution: RPMI 1640/Tween 80/DMSO and 1000/0.95/3.8, v/v/v.
All molecules were tested at a final concentration of 100 µg/mL and 10 µg/mL. A negative control consisted in adding the same RPMI 1640/Tween 80/DMSO solution, but without any drug and a positive control consisted in adding praziquantel. All molecules and control were performed in duplicates of well. The worm viability was checked after 1, 2, 3, 4, 5, 6, 7, 8, 24, 48, and 72 h after adding the molecule.

[3] = tested on: Vero cells; format: cell-based; settings: 48 h
Experimental: A non-cancer line of Vero cells was used to determine the cytotoxicity of the compound against mammalian cells. They were evaluated at a final DMSO concentration of 0.5%. The culture medium was MEM (Dutscher, Bernolsheim, France) supplemented with 10% fetal bovine serum (Fisher Scientific, Illkirch, France), 1X non-essential amino acids (Fisher Scientific, Illkirch, France), 100 U/mL, 100 µg/mL penicillin/streptomycin (Fisher Scientific, Illkirch, France), and 2 mM L-glutamine (Fisher Scientific, Illkirch, France) at 37 °C in a humidified 5% CO2 atmosphere. Vero cells (100 µL of 10^5 cells/mL per well) were plated in 96-well plates for 24 h then treated with 100 µL of compound dilutions (in duplicate) during 48 h. All molecules were tested from 5 nM to 50 µM. Each well was then examined under the microscope to detect any precipitate formation before the supernatant was removed by flicking the plate. A volume of 100 µL of 0.5 mg/mL in MEM from a stock solution at 5 mg/mL of PBS-dissolved MTT (3-(4,5-dimethylthiazol-2-yl)-2,5-diphenyltetrazolium bromide, Sigma Aldrich/Merck, Darmstadt, Germany) was then added to each well [20].
After incubation for 1 h at 37 °C and 5% CO2 the supernatant was removed and 100 µL of DMSO were added. Plates were gently shaken to dissolve formazan crystals resulting from the MTT reduction by living cells and read at 570 nm with the VICTOR Nivo plate reader (Perkin Elmer, Waltham, MA, USA). CC50 values were determined using GraphPad Prism 7 software (San Diego, CA, USA).

[4] = C–ON bond homolysis in t-BuPh, EPR, T (°C): A1L 128.0, A3L 125.0, A5L 130.0, A6L 125, A7L 126.5, A1D 122.5, A3D 119.8, A5D 130
[5] = C–ON bond homolysis in water/n-PrOH v/v 1:1, EPR, T (°C): A1L 95.1, A3L 94.5, A4L 94.6, A5L 94.0, A6L 94.8, A7L 94.3, A1D 93.5, A3D 92.6, A4D 95.0, A5D 94.6
[6] = Table S1, dose at 100 μg/ml, unit not given in Table S1 (h in Table 2)

| SMILES | Homolysis rate constant kd [1, 4] | Homolysis rate constant kd [1, 5] | Activation energy Ea ([1]; in t-BuPh) [kcal/mol] | Activation energy Ea ([1]; in water/n-PrOH v/v 1:1) [kcal/mol] | Activity/toxicity towards schistosomes (in words) [2] | Time to Kill 50% of Parasites [2] [h] | Time to Kill 100% of Parasites [2] [h] | CC50 [3] [µM] | time to kill all parasites [2, 6] | time to reach the death of half of the population of worms [2, 6] |
| --- | --- | --- | --- | --- | --- | --- | --- | --- | --- | --- |
| CC(ON1C(C)(C)CCCC1(C)C)c1ccc(NC(=O)[C@@H](Cc2ccccc2)NC(=O)OC(C)(C)C)cc1 (mixture of isomers) [A1D, tert-butyl ((2R)-1-oxo-3-phenyl-1-((4-(1-((2,2,6,6-tetramethylpiperidin-1-yl)oxy)ethyl)phenyl)amino)propan-2-yl)carbamate] | 9.6 10^−4 s^−1 | 1.0 10^−4 s^−1 | 31.6 | 30.83 |  |  |  |  |  |  |
| CC(ON1C(C)(C)CCCC1(C)C)c1ccc(NC(=O)[C@H](Cc2ccccc2)NC(=O)OC(C)(C)C)cc1 (mixture of isomers) [A1L, tert-butyl ((2S)-1-oxo-3-phenyl-1-((4-(1-((2,2,6,6-tetramethylpiperidin-1-yl)oxy)ethyl)phenyl)amino)propan-2-yl)carbamate] | 11.0 10^−4 s^−1 | 1.5 10^−4 s^−1 | 31.81 | 30.69 |  |  |  |  |  |  |
| CC(ON1C(C)(C)CCCC1(C)C)c1ccc(NC(=O)[C@H](Cc2ccccc2)NC(=O)[C@@H](NC(=O)[C@H](Cc2ccccc2)NC(=O)OC(C)(C)C)C(C)C)cc1 (stereo partly drawn) [A3L, tert-butyl ((2S)-1-(((2S)-3-methyl-1-oxo-1-(((2S)-1-oxo-3-phenyl-1-((4-(1-((2,2,6,6-tetramethylpiperidin-1-yl)oxy)ethyl)phenyl)amino)propan-2-yl)amino)butan-2-yl)amino)-1-oxo-3-phenylpropan-2-yl)carbamate] | 8.4 10^−4 s^−1 | 1.8 10^−4 s^−1 | 31.79 | 30.78 | inactive; also recorded: non-activity |  |  |  |  |  |
| CC(ON1C(C)(C)CCCC1(C)C)c1ccc(NC(=O)[C@H](Cc2ccccc2)NC(=O)[C@@H](NC(=O)[C@@H](N)Cc2ccccc2)C(C)C)cc1.O=C(O)C(F)(F)F (stereo partly drawn) [A4L, (2S)-1-(((2S)-3-methyl-1-oxo-1-(((2S)-1-oxo-3-phenyl-1-((4-(1-((2,2,6,6-tetramethylpiperidin-1-yl)oxy)ethyl)phenyl)amino)propan-2-yl)amino)butan-2-yl)amino)-1-oxo-3-phenylpropan-2-aminium trifluoroacetate] |  | 1.0 10^−4 s^−1 |  | 30.9 | most efficient molecules | 2 | 24 |  |  |  |
| CC(ON1C(C)(C)CCCC1(C)C)c1ccc(NC(=O)[C@H](Cc2ccccc2)NC(=O)[C@@H](NC(=O)[C@@H](N)Cc2ccccc2)C(C)C)cc1 (stereo partly drawn) [A5L, (2S)-2-((S)-2-amino-3-phenylpropanamido)-3-methyl-N-((2S)-1-oxo-3-phenyl-1-((4-(1-((2,2,6,6-tetramethylpiperidin-1-yl)oxy)ethyl)phenyl)amino)propan-2-yl)butanamide] | 18 10^−4 s^−1 | 1.3 10^−4 s^−1 | 31.57 | 30.66 | most efficient molecules | 2 | 7 |  |  |  |
| CC(ON1C(C)(C)CCCC1(C)C)c1ccc(NC(=O)[C@H](Cc2ccccc2)NC(=O)[C@@H](NC(=O)[C@H](Cc2ccccc2)NC(=O)CCC(=O)OCc2ccccc2)C(C)C)cc1 (stereo partly drawn) [A6L, Benzyl 4-(((2S)-1-(((2S)-3-methyl-1-oxo-1-(((2S)-1-oxo-3-phenyl-1-((4-(1-((2,2,6,6-tetramethylpiperidin-1-yl)oxy)ethyl)phenyl)amino)propan-2-yl)amino)butan-2-yl)amino)-1-oxo-3-phenylpropan-2-yl)amino)-4-oxobutanoate] | 11.0 10^−4 s^−1 | 1.1 10^−4 s^−1 | 31.57 | 30.86 | less active; also recorded: lower activity | 24 | 48 |  |  |  |
| CC(ON1C(C)(C)CCCC1(C)C)c1ccc(NC(=O)[C@H](Cc2ccccc2)NC(=O)[C@@H](NC(=O)[C@H](Cc2ccccc2)NC(=O)CCC(=O)O)C(C)C)cc1 (stereo partly drawn) [A7L, 4-(((2S)-1-(((2S)-3-methyl-1-oxo-1-(((2S)-1-oxo-3-phenyl-1-((4-(1-((2,2,6,6-tetramethylpiperidin-1-yl)oxy)ethyl)phenyl)amino)propan-2-yl)amino)butan-2-yl)amino)-1-oxo-3-phenylpropan-2-yl)amino)-4-oxobutanoic acid] | 15.0 10^−4 s^−1 |  | 31.45 | 30.93 | less active | 24 | 48 |  |  |  |
| CC(C)[C@@H](NC(=O)[C@@H](Cc1ccccc1)NC(=O)OC(C)(C)C)C(=O)N[C@H](Cc1ccccc1)C(=O)OCc1ccccc1 [P6D, Benzyl (tert-butoxycarbonyl)-D-phenylalanyl-D-valyl-D-phenylalaninate] (Boc-[dF]-[dV]-[dF]-OBn) |  |  |  |  | unexpectedly toxic |  |  | 3.2 | 24 | 4 |
| CC(C)[C@H](NC(=O)[C@H](Cc1ccccc1)NC(=O)OC(C)(C)C)C(=O)N[C@@H](Cc1ccccc1)C(=O)OCc1ccccc1 [P6L, Benzyl (tert-butoxycarbonyl)-L-phenylalanyl-L-valyl-L-phenylalaninate] (Boc-Phe-Val-Phe-OBn) |  |  |  |  |  |  |  | > 50 |  |  |
